Values quoted from earlier work in patent US12337056B2, “Topical compositions and methods” (MARY KAY INC., priority 2018, dated 2025).

Conditions: HyaClear Solution Presentation, Tri-K Industries, 2016

## Sodium hyaluronate
  skin barrier function: improve skin barrier function
  skin desquamation: reduce skin desquamation
  skin lubricity: increase skin lubricity
  skin moisturization: increase skin moisturization
  skin roughness: reduce skin roughness
